The values below are quoted from earlier work in paper PMC8342319, “Predicting blood-to-plasma concentration ratios of drugs from chemical structures and volumes of distribution in humans” (Molecular Diversity, 2021).

Where two headings read alike, the source gives them in different places.

For data set [1] the following is noted: cited from earlier work; for Rb_Human (blood-to-plasma concentration ratio) / Rb_Human: human; for Rb_Human: blood-to-plasma concentration ratio, median if multiple values reported, Reference of Table S1.
For data set [2] the following is noted: human, cited from earlier work.
For data set [3] the following is noted: human, intravenous, cited from earlier work.
For another data set, the system named is plasma protein. The settings on record: cited from earlier work; for fp_Human (free fraction in plasma): human, collected value, median if multiple values were reported, ref: Table S1.
Where [4] appears, read: median if multiple values were reported, ref numbers in Table S1.
Where [5] appears, read: intravenous, median if multiple values were reported, ref numbers in Table S1.
Setting [6] is: intravenous, median if multiple values reported, Reference of Table S1.
The mark [7] stands for this setting: median if multiple values reported, Reference of Table S1.
[8] abbreviates: free fraction in human plasma, median if multiple values reported, Reference of Table S1.

Regarding `Nc1nc(NC2CC2)c2ncn([C@H]3C=C[C@@H](CO)C3)c2n1` [Abacavir], the “Rb_Human (blood-to-plasma concentration ratio)” value in data set [1] (setting [4]) is reported as 1.03. Also, in data set [2] (setting [5]), the “in vivo Vd_(L/kg)_Human” value was 0.840 L/kg. Besides, the “in vivo CL_(L/hr/kg)_Human” value in data set [3] (setting [4]) is 0.780 L/h/kg. Moreover, the “fp_Human (free fraction in plasma)” value with plasma protein was 0.500.
`NCC[C@H](O)C(=O)N[C@@H]1C[C@H](N)[C@@H](O[C@H]2O[C@H](CN)[C@@H](O)[C@H](O)[C@H]2O)[C@H](O)[C@H]1O[C@H]1O[C@H](CO)[C@@H](O)[C@H](N)[C@H]1O` [Amikacin]: in data set [1] (setting [4]), the “Rb_Human (blood-to-plasma concentration ratio)” value was 0.97. The “in vivo Vd_(L/kg)_Human” value in data set [2] (setting [5]) is recorded as 0.160 L/kg. Moreover, in data set [3] (setting [4]), the “in vivo CL_(L/hr/kg)_Human” value is 0.066 L/h/kg. The “fp_Human (free fraction in plasma)” value in the data set with plasma protein is on record as 0.880.
`COC(=O)[C@H]1[C@@H](OC(=O)c2ccccc2)C[C@@H]2CC[C@H]1N2C` [Cocaine]: the “Rb_Human (blood-to-plasma concentration ratio)” value in data set [1] (plasma) is given as 1.00. Moreover, in data set [2] (in vivo, iv), the “in vivo Vd_(L/kg)_Human” value is reported as 2.000 L/kg. Besides, the “in vivo CL_(L/hr/kg)_Human” value in data set [3] (setting [4]) is 1.920 L/h/kg. Further, the “fp_Human (free fraction in plasma)” value in the data set on plasma protein was 0.120.
`CC(=O)O[C@@]12CO[C@@H]1C[C@H](O)[C@@]1(C)C(=O)[C@H](O)C3=C(C)[C@@H](OC(=O)[C@H](O)[C@@H](NC(=O)OC(C)(C)C)c4ccccc4)C[C@@](O)([C@@H](OC(=O)c4ccccc4)[C@H]21)C3(C)C` [Docetaxel]: the “Rb_Human (blood-to-plasma concentration ratio)” value in data set [1] (setting [4]) was 0.55. For the same compound, the “in vivo Vd_(L/kg)_Human” value in data set [2] (setting [5]) is given as 2.100 L/kg. For the same compound, in data set [3] (setting [4]), the “in vivo CL_(L/hr/kg)_Human” value is 1.098 L/h/kg. Moreover, the “fp_Human (free fraction in plasma)” value in the data set with plasma protein was 0.040.
As to `Cc1ccc(C)c(OCCCC(C)(C)C(=O)O)c1` [Gemfibrozil], in data set [1] (setting [4]), the “Rb_Human (blood-to-plasma concentration ratio)” value was 0.65. The “in vivo Vd_(L/kg)_Human” value in data set [2] (setting [5]) was 4.350 L/kg. Further, in data set [3] (setting [4]), the “in vivo CL_(L/hr/kg)_Human” value is 0.102 L/h/kg. Further, the “fp_Human (free fraction in plasma)” value with plasma protein was 0.005.
Turning to `CN1C(=O)NC(=O)C(C)(C2=CCCCC2)C1=O` (stereo not drawn) [Hexobarbital], in data set [1] (setting [4]), the “Rb_Human (blood-to-plasma concentration ratio)” value is 1.00. The “in vivo Vd_(L/kg)_Human” value in data set [2] (setting [5]) is 1.100 L/kg. Besides, in data set [3] (setting [4]), the “in vivo CL_(L/hr/kg)_Human” value was 0.204 L/h/kg. Moreover, the “fp_Human (free fraction in plasma)” value with plasma protein is recorded as 0.575.
On to `O=[N+]([O-])O[C@H]1CO[C@H]2[C@@H]1OC[C@H]2O[N+](=O)[O-]` [Isosorbide Dinitrate], for which the “Rb_Human (blood-to-plasma concentration ratio)” value in data set [1] (setting [4]) is 1.25. Moreover, in data set [2] (setting [5]), the “in vivo Vd_(L/kg)_Human” value is given as 0.975 L/kg. The “in vivo CL_(L/hr/kg)_Human” value in data set [3] (setting [4]) was 1.860 L/h/kg. Further, the “fp_Human (free fraction in plasma)” value with plasma protein is 0.640.
Consider `COC(=O)C1=C(C)NC(C)=C(C(=O)OC(C)C)C1c1cccc2nonc12` (stereo not drawn) [Isradipine], for which the “Rb_Human (blood-to-plasma concentration ratio)” value in data set [1] (setting [4]) was 0.55. Also, the “in vivo Vd_(L/kg)_Human” value in data set [2] (setting [5]) is 1.500 L/kg. For the same compound, in data set [3] (setting [4]), the “in vivo CL_(L/hr/kg)_Human” value was 1.560 L/h/kg. Also, the “fp_Human (free fraction in plasma)” value with plasma protein was 0.040.
Regarding `C[C@@H]1CN([C@H]2CC[C@](C#N)(c3ccc(F)cc3)CC2)CC[C@]1(C(=O)O)c1ccccc1` [Levocabastine], the “Rb_Human (blood-to-plasma concentration ratio)” value in data set [1] (setting [4]) is 1.20. Moreover, the “in vivo Vd_(L/kg)_Human” value in data set [2] (setting [5]) is 1.170 L/kg. The “in vivo CL_(L/hr/kg)_Human” value in data set [3] (setting [4]) was 0.026 L/h/kg. The “fp_Human (free fraction in plasma)” value with plasma protein is on record as 0.452.
On to `O=C1Nc2ccc(Cl)cc2C(c2ccccc2Cl)=NC1O` (stereo not drawn) [Lorazepam], for which the “Rb_Human (blood-to-plasma concentration ratio)” value in data set [1] (setting [4]) is recorded as 1.10. Further, in data set [2] (setting [5]), the “in vivo Vd_(L/kg)_Human” value is given as 6.850 L/kg. Besides, the “in vivo CL_(L/hr/kg)_Human” value in data set [3] (setting [4]) is 0.066 L/h/kg. Also, the “fp_Human (free fraction in plasma)” value in the data set on plasma protein was 0.074.
Take `Cc1cnc(NC(=O)C2=C(O)c3ccccc3S(=O)(=O)N2C)s1` [Meloxicam]: the “Rb_Human (blood-to-plasma concentration ratio)” value in data set [1] (setting [4]) is 1.22. For the same compound, in the data set with plasma protein, the “fp_Human (free fraction in plasma)” value is listed as 0.0045.
As for `COCC(=O)O[C@]1(CCN(C)CCCc2nc3ccccc3[nH]2)CCc2cc(F)ccc2[C@@H]1C(C)C` [Mibefradil], the “Rb_Human (blood-to-plasma concentration ratio)” value in data set [1] (setting [4]) is 0.64. In addition, in data set [2] (setting [5]), the “in vivo Vd_(L/kg)_Human” value is 3.100 L/kg. Besides, the “in vivo CL_(L/hr/kg)_Human” value in data set [3] (setting [4]) was 0.240 L/h/kg. Also, the “fp_Human (free fraction in plasma)” value in the data set on plasma protein is reported as 0.006.
On to `COc1c(C)c2c(c(O)c1C/C=C(\C)CCC(=O)O)C(=O)OC2` [Mycophenolic acid], for which, in data set [1] (setting [4]), the “Rb_Human (blood-to-plasma concentration ratio)” value was 0.69. Also, the “in vivo Vd_(L/kg)_Human” value in data set [2] (setting [5]) is 16.600 L/kg. For the same compound, in data set [3] (setting [4]), the “in vivo CL_(L/hr/kg)_Human” value is 0.199 L/h/kg. Moreover, the “fp_Human (free fraction in plasma)” value in the data set on plasma protein was 0.009.
For `C=C1CC[C@@]2(O)[C@H]3Cc4ccc(O)c5c4[C@@]2(CCN3CC2CC2)[C@H]1O5` [Nalmefene], the “Rb_Human (blood-to-plasma concentration ratio)” value in data set [1] (setting [4]) is recorded as 1.11. Further, the “in vivo Vd_(L/kg)_Human” value in data set [2] (setting [5]) is recorded as 8.200 L/kg. Further, in data set [3] (setting [4]), the “in vivo CL_(L/hr/kg)_Human” value was 0.900 L/h/kg. Also, the “fp_Human (free fraction in plasma)” value in the data set with plasma protein is reported as 0.650.
In the case of `OC(CNCC(O)C1CCc2cc(F)ccc2O1)C1CCc2cc(F)ccc2O1` (stereo not drawn) [Nebivolol], the “Rb_Human (blood-to-plasma concentration ratio)” value in data set [1] (setting [4]) was 1.20. Besides, in data set [2] (setting [5]), the “in vivo Vd_(L/kg)_Human” value is given as 11.000 L/kg. For the same compound, the “in vivo CL_(L/hr/kg)_Human” value in data set [3] (setting [4]) is 0.840 L/h/kg. Besides, in the data set with plasma protein, the “fp_Human (free fraction in plasma)” value is 0.020.
Take `O=C1c2cccc3c2[C@H](CCC3)CN1[C@@H]1CN2CCC1CC2` [Palonosetron]: in data set [1] (setting [4]), the “Rb_Human (blood-to-plasma concentration ratio)” value is 1.20. Also, the “in vivo Vd_(L/kg)_Human” value in data set [2] (setting [5]) is reported as 6.300 L/kg. The “in vivo CL_(L/hr/kg)_Human” value in data set [3] (setting [4]) is 0.156 L/h/kg. Besides, in the data set with plasma protein, the “fp_Human (free fraction in plasma)” value is given as 0.380.
In the case of `c1ccc(C2(N3CCCCC3)CCCCC2)cc1` [Phencyclidine], the Rb_Human in data set [1] is 0.94. Besides, the “in vivo Vd_(L/kg)_Human” value in data set [2] (setting [6]) is listed as 6.550 L/kg. Besides, in data set [3] (setting [7]), the “in vivo CL_(L/hr/kg)_Human” value was 0.306 L/h/kg. Moreover, in the data set with plasma protein (setting [8]), the fp_Human is 0.350.
Take `COc1cc2nc(N3CCN(C(=O)c4ccco4)CC3)nc(N)c2cc1OC` [Prazosin]: in data set [1], the Rb_Human is given as 0.70. The fp_Human in the data set on plasma protein is listed as 0.054.
On to `CC(CN1c2ccccc2Sc2ccccc21)N(C)C` (stereo not drawn) [Promethazine], for which the Rb_Human in data set [1] is reported as 1.50. The fp_Human with plasma protein (setting [8]) was 0.125.
Consider `O=P(O)(O)C(O)(Cc1cccnc1)P(=O)(O)O` [Risedronic acid], for which the Rb_Human in data set [1] was 1.07. Moreover, in data set [3] (setting [7]), the “in vivo CL_(L/hr/kg)_Human” value is 0.090 L/h/kg. The fp_Human with plasma protein (setting [8]) was 0.760.
Consider `CN(CCOc1ccc(CC2SC(=O)NC2=O)cc1)c1ccccn1` (stereo not drawn) [Rosiglitazone], for which the Rb_Human in data set [1] is on record as 0.57. Besides, the “in vivo CL_(L/hr/kg)_Human” value in data set [3] (setting [7]) is 0.039 L/h/kg. Moreover, in the data set with plasma protein (setting [8]), the fp_Human was 0.002.
On to `CNS(=O)(=O)Cc1ccc2[nH]cc(CCN(C)C)c2c1` [Sumatriptan], for which the Rb_Human in data set [1] was 1.03. In addition, in data set [2] (setting [6]), the “in vivo Vd_(L/kg)_Human” value is 1.700 L/kg. Besides, the fp_Human in the data set with plasma protein (setting [8]) is on record as 0.830.
As to `COc1cc2nc(N3CCN(C(=O)C4CCCO4)CC3)nc(N)c2cc1OC` (stereo not drawn) [Terazosin], the Rb_Human in data set [1] is 0.84. Also, the “in vivo CL_(L/hr/kg)_Human” value in data set [3] (setting [7]) was 0.066 L/h/kg. The fp_Human in the data set on plasma protein (setting [8]) is reported as 0.080.
As to `C[C@@H](O)[C@H]1C(=O)N2C(C(=O)O)=C(S[C@@H]3CN[C@H](CNS(N)(=O)=O)C3)[C@H](C)[C@H]12` [doripenem, reference compound], the Rb value in data set [1] (almost no distribution in blood cells) is listed as 0.5. Besides, in the data set on plasma protein, the “fp_Human (free fraction in plasma)” value was 0.920.
Tetracycline: the Rb_Human in data set [1] is recorded as 1.70. Further, the “in vivo CL_(L/hr/kg)_Human” value in data set [3] (setting [7]) was 0.090 L/h/kg. Further, the fp_Human in the data set on plasma protein (setting [8]) was 0.780.
